Experimental data taken from patent US20220380341A1, “INHIBITORS OF HIV-1 NEF FOR THE TREATMENT OF HIV DISEASE” (priority 2018, published 2022).
Read-outs that look alike come from different tables or passages of the source.

Experiments:
[1] = tested on: HIV-1NL4-3; experiment: HIV-1 infectivity assay in TZM-bl reporter cell line (LTR-luciferase, 48 h); format: cell-based; settings: for inhibition at 1 µM: Human immunodeficiency virus 1, TZM-bl
Procedure, shortened: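 Percent inhibition of HIV-1NL4-3 infectivity at 1 μM compound, from luciferase output of TZM-bl cells 48 h after infection. Scale anchors are DMSO-treated wild-type infection as zero and DMSO-treated Nef-defective infection as full Nef-dependent effect.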

[2] = tested on: TZM-bl cell line; format: cell-based
Procedure, shortened: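 Luciferase read-out 48 h post-infection; compound at 1 μM during HIV-1NL4-3 infection of TZM-bl cells. Percent inhibition scaled to DMSO wild-type virus (0%) and DMSO Nef-defective virus (100% of Nef-dependent effect). Viability checked separately in uninfected cells by Cell Titer Blue.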

[3] = biological target: HIV-1 NefNL4-3 (Human immunodeficiency virus type 1 group M subtype B, UniProt P03406, A33V/T15A/T51N/V11I); experiment: Surface plasmon resonance binding to recombinant full-length Nef (NL4-3); settings: for RU30/RUNef (extent of binding): response units at 30 μM relative to Nef immobilized on the SPR chip
[4] = Table 4, 1:1 Langmuir fit, T = 1/koff
[5] = 1.0 μM, TZM-bl reporter cell line, Table 4, read-out: % Infectivity Inhibition
[6] = 48 h, Table 1, TZM-bl cells, 1 μM, 48 h, 100% = Nef-defective HIV-1, read-out: HIV-1 Infectivity % Inhibition Norm. to Δ-Nef @ 1 μM
[7] = KD, M, Table 4, SPR fit 1:1 Langmuir, KD = koff/kon
[8] = KD, M, Table 4, SPR fit 2-step induced fit, KD = koff/kon × koff2/(koff2 + kon2)
[9] = Nef NL4-3 Binding, SPR 2-state fitting KD, Table 1, 2-step induced-fit model
[10] = Table 4, 2-step induced fit, T = 1/koff2

Compound	% Infectivity Inhibition ([1]; 1.0 μM, TZM-bl reporter cell line, Table 4) [%]	HIV-1 Infectivity % Inhibition Norm. to Δ-Nef @ 1 μM ([1]; Table 1, TZM-bl cells, 1 μM, 48 h, 100% = Nef-defective HIV-1) [%]	% Cell Viability ([2]; 1.0 μM, uninfected TZM-bl, CellTiter-Blue, Table 4) [%]	Percent Viability @ 1 μM (TZM-bl cells) ([2]; Table 1, uninfected TZM-bl cells, 1 μM, Cell Titer Blue) [%]	Kd ([3]; Table 1, 1:1 Langmuir fit where the KD2 cell says '1 to 1 fitting', else 2-site fit, read-out: Nef NL4-3 Binding, SPR 1:1 or 2-site fitting KD1) [nM]	T, minutes (residence time) [3, 4]	Kd ([3]; Table 4, SPR fit 1:1 Langmuir, KD = koff/kon, read-out: KD) [nM]	RU30/RUNef (extent of binding) [3] [E- 03]	inhibition at 1 µM [1, 5] [%]	inhibition at 1 µM [1, 6] [%]	% Cell Viability ([2]; human, 1 μM) [%]	Percent Viability @ 1 μM (TZM-bl cells) ([2]; human, 1 μM) [%]	Kd [3] [nM]	Kd [3, 7] [nM]	Kd [3, 8] [nM]	Kd [3, 9] [nM]	T, minutes (residence time) [3, 10]
O=C(COCc1ccncc1)N1CCC(Cc2nn(-c3nc4ccccc4[nH]3)c(O)c2CCc2ccc(F)cc2)CC1 [Compound I-769, 1-(4-{[1-(1H-1,3-benzodiazol-2-yl)-4-[2-(4-fluorophenyl)ethyl]-5-hydroxy-1H-pyrazol-3-yl]methyl}piperidin-1-yl)-2-[(pyridin-4-yl)methoxy]ethan-1-one]	26.5	26.5	98.8	98.8	798	9.47E + 00 minutes	798	4.88									
CC(C)(C)OC(=O)N1CCC(Cc2nn(-c3nc4ccccc4[nH]3)c(O)c2CCc2ccc(F)cc2)CC1 [Compound I-770]						1.65E + 04 minutes		3.04	49.2	49.2	99.7	99.7	1.05	1.05			
CS(=O)(=O)N1CCC(Cc2nn(-c3nc4ccccc4[nH]3)c(O)c2CCc2ccc(F)cc2)CC1 [Compound I-771, 1-(1H-1,3-benzodiazol-2-yl)-4-[2-(4-fluorophenyl)ethyl]-3-[(1-methanesulfonylpiperidin-4-yl)methyl]-1H-pyrazol-5-ol]										13.1		100.1	965				
CC(=O)N1CCC(Cc2nn(-c3nc4ccccc4[nH]3)c(O)c2CCc2ccc(F)cc2)CC1 [Compound I-772, 1-(4-{[1-(1H-1,3-benzodiazol-2-yl)-4-[2-(4-fluorophenyl)ethyl]-5-hydroxy-1H-pyrazol-3-yl]methyl}piperidin-1-yl)ethan-1-one]										49.6		100.1	858				
O=C(OCc1ccccc1)N1CCCC(Cc2nn(-c3nc4ccccc4[nH]3)c(O)c2CCc2ccc(F)cc2)C1 (stereo not shown) [Compound I-773, benzyl 3-{[1-(1H-1,3-benzodiazol-2-yl)-4-[2-(4-fluorophenyl)ethyl]-5-hydroxy-1H-pyrazol-3-yl]methyl}piperidine-1-carboxylate]										25.5		101.8	55.9				
O=S(=O)(NCc1nn(-c2nc3ccccc3[nH]2)c(O)c1CCc1ccc(F)cc1)c1cccnc1 [Compound I-774, N-{[1-(1H-1,3-benzodiazol-2-yl)-4-[2-(4-fluorophenyl)ethyl]-5-hydroxy-1H-pyrazo1-3-y1]methyl}pyridine-3-sulfonamide]								2.56	0	-0.1	94.4	94.4	252		27.5	27.5	1.09E + 02 minutes
CS(=O)(=O)N1CCC(CCc2c(-c3ccc(C(F)(F)F)cn3)nn(-c3nc4cc(Br)ccc4[nH]3)c2O)CC1 [Compound I-775, 1-(5-bromo-1H-1,3-benzodiazol-2-yl)-4-[2-(1-methanesulfonylpiperidin-4-yl)ethyl]-3-[5-(trifluoromethyl)pyridin-2-yl]-1H-pyrazol-5-ol]						4.26E + 01 minutes		1.62	62.1	62.1	72.9	72.9	316	316			
CC(C)(O)C(=O)N1CCC(CCc2c(-c3cccc(S(C)(=O)=O)c3)nn(-c3nc4ccccc4[nH]3)c2O)CC1 [Compound I-776, 1-(4-{2-[1-(1H-1,3-benzodiazol-2-yl)-5-hydroxy-3-(3-methanesulfonylphenyl)-1H-pyrazol-4-yl]ethyl}piperidin-1-yl)-2-hydroxy-2-methylpropan-1-one]								5.14	19.3	19.3	97.1	97.1	393		1200	1200	1.06E + 01 minutes
CC(C)(O)C(=O)N1CCC(Cc2nn(-c3nc4ccccc4[nH]3)c(O)c2CCc2ccc(F)cc2)CC1 [Compound I-777, 1-(4-{[1-(1H-1,3-benzodiazol-2-yl)-4-[2-(4-fluorophenyl)ethyl]-5-hydroxy-1H-pyrazol-3-yl]methyl}piperidin-1-yl)-2-hydroxy-2-methylpropan-1-one]						3.50E + 00 minutes		2.23	0	-3.6	97.0	97.0	997	997			
CC(=O)N1CCCC(Cc2c(C3CC3)nn(-c3nc4ccccc4[nH]3)c2O)C1 (stereo not shown) [Compound I-780, 1-(3-{[1-(1H-1,3-benzodiazol-2-yl)-3-cyclopropyl-5-hydroxy-1H-pyrazol-4-yl]methyl}piperidin-1-yl)ethan-1-one]						8.13E + 00 minutes		4.47	0		99			4070			
CN(C)C(=O)N1CCCC(Cc2c(C3CC3)nn(-c3nc4ccccc4[nH]3)c2O)C1 (stereo not shown) [Compound I-782, 3-{[1-(1H-1,3-benzodiazol-2-yl)-3-cyclopropyl-5-hydroxy-1H-pyrazol-4-yl]methyl}-N,N-dimethylpiperidine-1-carboxamide]						3.62E + 00 minutes		5.13	61.1		98.8			9410			
C[C@@](O)(C(=O)N1CCC(CCc2c(C3CC3)nn(-c3nc4ccccc4[nH]3)c2O)CC1)C(F)(F)F [Compound I-783, (2R)-1-(4-{2-[1-(1H-1,3-benzodiazol-2-yl)-3-cyclopropyl-5-hydroxy-1H-pyrazol-4-yl]ethyl}piperidin-1-yl)-3,3,3-trifluoro-2-hydroxy-2-methylpropan-1-one]						4.08E + 00 minutes		1.38	5.4		100			3370			
Oc1c(CCc2ccc(F)cc2)c(C2CCN(Cc3ccccn3)CC2)nn1-c1nc2ccccc2[nH]1 [Compound I-802, 1-(1H-1,3-benzodiazol-2-yl)-4-[2-(4-fluorophenyl)ethyl]-3-{1-[(pyridin-2-yl)methyl]piperidin-4-yl}-1H-pyrazol-5-ol]								2.48	4.4	4.4	99.3	99.3	447		182	182	2.21E + 01 minutes
Oc1c(CCc2ccc(F)cc2)c(C2CCN(Cc3cccnc3)CC2)nn1-c1nc2ccccc2[nH]1 [Compound I-803, 1-(1H-1,3-benzodiazol-2-yl)-4-[2-(4-fluorophenyl)ethyl]-3-{1-[(pyridin-3-yl)methyl]piperidin-4-yl}-1H-pyrazol-5-ol]						1.59E + 01 minutes		1.69	3.2	3.2	100	100.4	817	817			
